{"source": "ChEMBL document CHEMBL1126506", "about": "“Thoromboxane A2/endoperoxide receptor antagonists: 1,3-Dioxane and 1,3-dioxolane analogs” (Bioorg Med Chem Lett, 1993)", "key": {"Thromboxane A2 receptor [1]": {"molecular_target": "T1, Thromboxane A2 receptor (Homo sapiens, UniProt P21731)", "T1 sequence (P21731 whole entry)": "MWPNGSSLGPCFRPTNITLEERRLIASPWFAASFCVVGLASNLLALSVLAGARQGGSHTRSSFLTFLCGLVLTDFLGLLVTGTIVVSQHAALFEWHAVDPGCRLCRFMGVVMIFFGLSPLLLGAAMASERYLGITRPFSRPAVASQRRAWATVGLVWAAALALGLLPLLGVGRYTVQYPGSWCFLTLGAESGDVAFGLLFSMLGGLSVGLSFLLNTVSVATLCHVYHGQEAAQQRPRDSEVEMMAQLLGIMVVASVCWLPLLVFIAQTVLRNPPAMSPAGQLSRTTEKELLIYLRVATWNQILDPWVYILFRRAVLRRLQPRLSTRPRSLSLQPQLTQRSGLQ", "experiment": "In vitro inhibition against TXA2/PGH2 receptor using [3H]-SQ 29,548 as radioligand in human platelet membrane preparation", "type": "cell membranes", "settings": "read-out: I50"}, "Thromboxane A2 receptor [2]": {"molecular_target": "T1, Thromboxane A2 receptor", "experiment": "In vitro binding affinity was determined for platelet thromboxane receptor in presence of [3H]-SQ 29548"}, "Homo sapiens": {"organism": "Homo sapiens", "experiment": "Tested for ability to inhibit arachidonic acid-induced and ADP-induced platelet aggregation of human platelet rich plasma", "type": "functional", "settings": "read-out: I50"}}}
{"smiles": "O=C(O)CCc1ccccc1CC1OCOC1c1nc(C(=O)NCCc2ccc(Cl)cc2)co1", "note": "(trans isomer; (-))", "values": [{"measurement": "IC50", "setting": "Thromboxane A2 receptor [1]", "result": 310, "unit": "nM"}, {"measurement": "Kd", "setting": "Thromboxane A2 receptor [2]", "result": 8.2, "unit": "nM"}]}
{"smiles": "O=C(O)CCc1ccccc1CC1OCOC1c1nc(C(=O)NCCc2ccc(Cl)cc2)co1", "note": "(trans isomer; (+))", "values": [{"measurement": "IC50", "setting": "Thromboxane A2 receptor [1]", "result": 3100, "unit": "nM"}, {"measurement": "Kd", "setting": "Thromboxane A2 receptor [2]", "result": 45, "unit": "nM"}]}
{"smiles": "CCCCCNC(=O)c1coc(C2C3CCC(O3)C2Cc2ccccc2CCC(=O)O)n1", "note": "(stereo not given) [BMS-180291]", "values": [{"measurement": "IC50", "setting": "Homo sapiens", "result": 7, "unit": "nM"}]}
{"smiles": "O=C(O)CCc1ccccc1CC1COCOC1c1nc(C(=O)NCCc2ccc(Cl)cc2)co1", "note": "(stereo not given)", "values": [{"measurement": "IC50", "setting": "Thromboxane A2 receptor [1]", "result": 330, "unit": "nM"}, {"measurement": "Kd", "setting": "Thromboxane A2 receptor [2]", "result": 8, "unit": "nM"}]}
{"smiles": "O=C(O)CCc1ccccc1CC1C2CCC(O2)C1c1nc(C(=O)NCCc2ccc(Cl)cc2)co1", "note": "(stereo not given)", "values": [{"measurement": "IC50", "setting": "Thromboxane A2 receptor [1]", "result": 7, "unit": "nM"}]}
{"smiles": "O=C(O)CCc1ccccc1CC1OCOC1c1nc(C(=O)NCCc2ccc(Cl)cc2)co1", "note": "(racemic)", "values": [{"measurement": "IC50", "setting": "Thromboxane A2 receptor [1]", "result": 130, "unit": "nM"}, {"measurement": "Kd", "setting": "Thromboxane A2 receptor [2]", "result": 31.1, "unit": "nM"}]}
